Measurements taken from ChEMBL document CHEMBL3098130, “Discovery of Novel Putative Inhibitors of UDP-GlcNAc 2-Epimerase as Potent Antibacterial Agents” (ACS Med Chem Lett, 2013).

Legend:
Assay type in all cases: functional
Conditions in all cases: read-out: GI
Bacillus anthracis [1] = assay: Antibacterial activity against Bacillus anthracis Sterne assessed as growth inhibition at 10 uM measured every 2 mins for 16 to 20 hrs by spectramax 96-well plate reader analysis
Bacillus anthracis [2] = assay: Antibacterial activity against Bacillus anthracis Sterne assessed as growth inhibition at 3 uM measured every 2 mins for 16 to 20 hrs by spectramax 96-well plate reader analysis
Staphylococcus aureus [3] = assay: Antibacterial activity against methicillin-resistant Staphylococcus aureus assessed as growth inhibition at 10 uM measured every 2 mins for 16 to 20 hrs by spectramax 96-well plate reader analysis
Staphylococcus aureus [4] = assay: Antibacterial activity against methicillin-resistant Staphylococcus aureus assessed as growth inhibition at 30 uM measured every 2 mins for 16 to 20 hrs by spectramax 96-well plate reader analysis
Staphylococcus aureus [5] = assay: Antibacterial activity against methicillin-resistant Staphylococcus aureus assessed as growth inhibition at 3 uM measured every 2 mins for 16 to 20 hrs by spectramax 96-well plate reader analysis
Bacillus anthracis [6] = assay: Antibacterial activity against Bacillus anthracis Sterne assessed as growth inhibition at 30 uM measured every 2 mins for 16 to 20 hrs by spectramax 96-well plate reader analysis

Row | Compound | inhibition of growth at 10 µM (Bacillus anthracis [1]) | inhibition of growth at 3 µM (Bacillus anthracis [2]) | inhibition of growth at 10 µM (Staphylococcus aureus [3]) | inhibition of growth at 30 µM (Staphylococcus aureus [4]) | inhibition of growth at 3 µM (Staphylococcus aureus [5]) | inhibition of growth at 30 µM (Bacillus anthracis [6])
1 | O=C(O)C(Cc1ccccc1)N1C(=O)/C(=C\c2ccc(-c3cccc(Cl)c3)o2)NC1=S (configuration not stated) | 0% | 10% | 0% | 10% | 0% | 90%
2 | O=C(O)C(Cc1ccccc1)N1C(=O)/C(=C\c2ccc(-c3ccc(Br)cc3)o2)NC1=S (configuration not stated) | 100% | 70% | 90% | 90% | 10% | 100%
3 | O=C(O)C(Cc1ccccc1)N1C(=O)/C(=C\c2ccc(-c3ccc(I)cc3)o2)NC1=S (configuration not stated) | 100% | 50% | 90% | 90% | 0% | 100%
4 | O=C(O)C(Cc1ccccc1)N1C(=O)/C(=C\c2ccc(-c3ccc(OC(F)(F)F)cc3)o2)NC1=S (configuration not stated) | 100% | 10% | 10% | 100% | 0% | 100%
5 | O=C(O)C(Cc1ccccc1)N1C(=O)/C(=C\c2ccc(-c3ccc(Cl)c(Cl)c3)s2)NC1=S (configuration not stated) | 110% | 0% | 10% | 40% | 10% | 90%
6 | O=C(O)C(Cc1ccccc1)N1C(=O)/C(=C\c2ccc(-c3ccc(Cl)c(Cl)c3)o2)NC1=S (configuration not stated) | 110% | 110% | 90% | 100% | 20% | 110%
7 | O=C(O)C(Cc1ccccc1)N1C(=O)/C(=C\c2ccc(-c3ccc(Br)c(Cl)c3)s2)NC1=S (configuration not stated) | 10% | 20% | 10% | 0% |  | 90%
8 | O=C(O)C(Cc1ccccc1)N1C(=O)/C(=C\c2ccc(-c3ccc(Br)c(Cl)c3)o2)NC1=S (configuration not stated) | 100% | 100% | 100% | 100% | 20% | 100%
9 | O=C(O)C(Cc1ccccc1)N1C(=O)/C(=C\c2ccc(-c3cc(Cl)cc(Cl)c3)o2)NC1=S (configuration not stated) | 0% | 0% | 10% | 90% | 0% | 100%
10 | COc1ccc(-c2ccc(/C=C3/NC(=S)N(C(Cc4ccccc4)C(=O)O)C3=O)o2)cc1Cl (configuration not stated) | 30% | 0% | 10% | 80% | 10% | 100%
11 | COc1ccc(-c2ccc(/C=C3/NC(=S)N(C(Cc4ccccc4)C(=O)O)C3=O)s2)cc1 (configuration not stated) | 0% | 0% | 10% | 20% | 0% | 100%
12 | O=C(O)C(Cc1ccccc1)N1C(=O)/C(=C\c2ccc(-c3ccc(F)cc3)s2)NC1=S (configuration not stated) | 10% | 0% | 20% | 50% | 20% | 100%
13 | O=C(O)C(Cc1ccccc1)N1C(=O)/C(=C\c2ccc(-c3ccc(Cl)cc3)s2)NC1=S (configuration not stated) | 100% | 0% | 0% | 90% | 0% | 100%
14 | O=C(O)C(Cc1ccccc1)N1C(=O)/C(=C\c2ccc(-c3ccc(Br)cc3)s2)NC1=S (configuration not stated) | 100% | 80% | 90% | 90% | 20% | 100%
15 | O=C1NC(=S)NC(=O)C1=Cc1ccc(-c2ccc(Br)c(Cl)c2)o1 |  |  |  |  |  | 96.6%
16 | O=C1Nc2ccccc2/C1=C1/SC(=S)N(C(Cc2ccccc2)C(=O)O)C1=O (configuration not stated) |  |  |  |  |  | 99.7%
17 | CCC(C(=O)O)N1C(=O)/C(=C\c2ccc(-c3ccc(Cl)c(Cl)c3)o2)NC1=S (configuration not stated) | 100% | 0% | 0% | 90% | 0% | 90%
18 | NC(=O)C(Cc1ccccc1)N1C(=O)/C(=C\c2ccc(-c3ccc(Cl)c(Cl)c3)o2)NC1=S (configuration not stated) | 90% | 20% | 30% | 60% | 0% | 90%
19 | CCOC(=O)C(Cc1ccccc1)N1C(=O)/C(=C\c2ccc(-c3ccc(Cl)c(Cl)c3)o2)NC1=S (configuration not stated) | 50% |  | 0% | 0% |  | 0%
20 | N#CNC(=O)C(Cc1ccccc1)N1C(=O)/C(=C\c2ccc(-c3ccc(Cl)c(Cl)c3)o2)NC1=S (configuration not stated) | 100% | 0% | 0% | 100% | 0% | 100%
21 | CS(=O)(=O)NC(=O)C(Cc1ccccc1)N1C(=O)/C(=C\c2ccc(-c3ccc(Cl)c(Cl)c3)o2)NC1=S (configuration not stated) | 100% | 40% | 30% | 60% | 0% | 90%
22 | O=C(NS(=O)(=O)C(F)(F)F)C(Cc1ccccc1)N1C(=O)/C(=C\c2ccc(-c3ccc(Cl)c(Cl)c3)o2)NC1=S (configuration not stated) | 100% | 70% | 80% | 90% | 0% | 100%
23 | CCC(C(=O)NS(C)(=O)=O)N1C(=O)/C(=C\c2ccc(-c3ccc(Cl)c(Cl)c3)o2)NC1=S (configuration not stated) | 0% | 10% | 0% | 0% | 0% | 20%
24 | O=C(O)C(Cc1ccccc1)N1C(=O)/C(=C\c2ccc(-c3ccccc3)o2)NC1=S (configuration not stated) | 10% | 0% | 10% | 10% | 0% | 20%
25 | O=C(O)C(Cc1ccccc1)N1C(=O)/C(=C\c2ccc(-c3ccc(Cl)cc3)o2)NC1=S (configuration not stated) | 70% | 0% | 20% | 90% | 10% | 100%
